Laboratory results: EP2471783A1, “Novel polymorphic form of efavirenz” (Esteve Química, S.A., priority 2010, dated 2012)

What was measured:
[1] = cited from earlier work
[2] = Comparative and competitive slurry experiments (mixtures of forms, followed by powder X-ray diffraction); type: physicochemical
Procedure: Mixtures of Efavirenz form I with form III or form C were prepared according to table II. The suspensions were stirred at 20°C with small PTFE coated cross-shaped magnetic stirrers and samples taken after 1, 2 and 7 days, filtered, dried at ambient temperature under vacuum for 20 minutes and analyzed by powder X-ray diffraction.

[3] = Dissolution studies in ethanol-water (volume of ethanol required for dissolution of an aqueous suspension); type: physicochemical; details: suspension in water 20 mL with DSS 0.02 g, 20°C, ethanol added at 0.2 mL/min, 50% reduction in turbidity
Procedure: Dissolution experiments were performed for forms I, III and C of Efavirenz. To an aqueous suspension of each form, ethanol was added and the volume recorded in order for dissolution. Efavirenz is hydrophobic and has a tendency to float in water. To improve the dispersion of efavirenz in water, a surfactant was used, namely, docusate sodium (DSS), the dioctyl ester of sodium sulfosuccinate. DSS is a widely used pharmaceutical excipient and food additive. Efavirenz, polymorphic form and quantity as indicated in the table V, was suspended in water (milliQ, 20 mL) with DSS (docusate sodium, 0.02 g) in a 100 mL vessel. This mixture was placed in an ultrasonic batch for 5 minutes to break up any agglomerates and then the vessel was transferred to an automated (HEL) reaction block equipped with pitched 4-blade turbine PTFE agitators (set to 120 rpm), turbidity probes and syringe pumps. The temperature inside the vessels was controlled by jackets connected to a re-circulating heater-chiller unit. The mixtures were agitated at 20°C and turbidity probes adjusted before addition of ethanol at a continuous rate of 0.2 mL/min via the syringe pumps. The volume of ethanol required for dissolution was taken as that required for a 50% reduction in the turbidity reading. […]

[4] = Accelerated stability conditions; type: physicochemical
Excerpt: Thus, in one aspect, the present invention is directed to a polymorphic form C of Efavirenz characterized by an X-ray powder diffraction pattern which comprises characteristic 2θ values at: 7.1, 7.3, 11.0, 13.8, 14.2, 14.6, 19.1, 20.9, 21.2, 24.5 and 24.9 ± 0.2 degrees 2θ.

[5] = Dissolution studies in heptane (solubility curve, dissolution point by turbidity); type: physicochemical; details: for Dissolution Temperatures: in heptane, heating ramp 0.2°C/min, 10% reduction in turbidity; for solubility in heptane, compared between forms: temperature range studied 17-82°C
Procedure: To determine the solubility curve of a given polymorphic form, different concentrations in heptane were prepared and charged to a HEL multi-reactor, using 100 mL vessels. These reactors were equipped with 4-blade PTFE turbines, (set to 150 rpm), temperature probes and turbidity probes. Temperature was controlled by applying the same re-circulating heater-chiller unit to all vessel jackets and using individual temperature compensation by external heating plates below each vessel. Heating ramps of 0.2°C/min were applied to each vessel, and the dissolution point determined by a 10% reduction in turbidity. […] Table VI. Results for solubility in heptane

[6] = slurry in ethanol/water, 20°C, samples after 1, 2 and 7 days

conversion of form C into form I ([2]; form C in its pure form, without any contamination with form I)	stability ([4]; 25°C and 60% relative humidity)	stability ([4]; 40°C and 75% relative humidity)	Dissolution Temperatures ([5]; concentration 0,010 g/mL)	Dissolution Temperatures ([5]; concentration 0,040 g/mL)	Dissolution Temperatures ([5]; concentration 0,067 g/mL)	Dissolution Temperatures ([5]; concentration 0,200 g/mL)	solubility in heptane, compared between forms [5]	Dissolution Temperatures ([5]; concentration 0,180 g/mL)	SMILES	aqueous solubility [1]	content of form C in a mixture of form I and form C [2, 6]	content of form C in a mixture of form I and form C ([2]; slurry in methanol/water, 20°C, samples after 1, 2 and 7 days)	volume of ethanol required to achieve dissolution, compared between forms [3]	content of form I in a mixture of form I and form III [2, 6]
–	–	–	–	–	–	–	–	–	O=C1Nc2ccc(Cl)cc2[C@@](C#CC2CC2)(C(F)(F)F)O1 [Efavirenz, (4S)-6-chloro-4-(cyclopropylethynyl)-4-(trifluoromethyl)-1,4-dihydro-2H-3,1-benzoxazin-2-one]	extremely poor	–	–	–	–
–	–	–	29 °C	64 °C	74 °C	82 °C	less soluble at high temperature	–	O=C1Nc2ccc(Cl)cc2[C@@](C#CC2CC2)(C(F)(F)F)O1 [Form I, (4S)-6-chloro-4-(cyclopropylethynyl)-4-(trifluoromethyl)-1,4-dihydro-2H-3,1-benzoxazin-2-one]	–	–	–	–	decreases with time, and after 7 days the mixture has converted completely to form III
–	–	–	31 °C	55 °C	62 °C	–	less soluble at low temperature	75 °C	O=C1Nc2ccc(Cl)cc2[C@@](C#CC2CC2)(C(F)(F)F)O1 [Form III, (4S)-6-chloro-4-(cyclopropylethynyl)-4-(trifluoromethyl)-1,4-dihydro-2H-3,1-benzoxazin-2-one]	–	–	–	–	–

SMILES	conversion of form C into form I ([2]; form C in its pure form, without any contamination with form I)	stability ([4]; 25°C and 60% relative humidity)	stability ([4]; 40°C and 75% relative humidity)	Dissolution Temperatures ([5]; concentration 0,010 g/mL)	Dissolution Temperatures ([5]; concentration 0,040 g/mL)	Dissolution Temperatures ([5]; concentration 0,067 g/mL)	Dissolution Temperatures ([5]; concentration 0,200 g/mL)	solubility in heptane, compared between forms [5]	Dissolution Temperatures ([5]; concentration 0,180 g/mL)	aqueous solubility [1]	content of form C in a mixture of form I and form C [2, 6]	content of form C in a mixture of form I and form C ([2]; slurry in methanol/water, 20°C, samples after 1, 2 and 7 days)	volume of ethanol required to achieve dissolution, compared between forms [3]	content of form I in a mixture of form I and form III [2, 6]
O=C1Nc2ccc(Cl)cc2[C@@](C#CC2CC2)(C(F)(F)F)O1 [Form C, (4S)-6-chloro-4-(cyclopropylethynyl)-4-(trifluoromethyl)-1,4-dihydro-2H-3,1-benzoxazin-2-one]	not observed	stable during at least three months	stable during at least three months	17 °C	49 °C	56 °C	71 °C	more soluble in heptane than forms I and III	–	–	decreases with time, although some still remains in the mixture after 7 days	a similar trend is observed although the transformation is slower	consistently requires less volume of ethanol than forms I and III	–
